# Test results: US20170189429A1, “Treating Arrhythmia with Mitochondrial-Targeted Antioxidants” (Rhode Island Hospital, priority 2014, published 2017)
# Columns and labels:
# [1] = tested on: SCN5A: sodium channel, voltage gated type V alpha subunit; assay: INa in SCN5A cells treated with NADH; type: cell-based
# Protocol: FIG. 1A is a graph showing a series of sodium current traces measuring a INa reduction induced by NADH (nicotinamide adenine dinucleotide) (SCN5A+100 μM [NADH]) compared to normal INa (SCN5A), which can be restored by mitoTEMPO (SCN5A+100 μM [NADH]+5 μM [mitoTEMPO]). SCN5A: sodium channel, voltage gated type V alpha subunit
# FIG. 1B is a bar graph showing INa reduction induced by NADH (SCN5A+100 μM [NADH]) compared to normal INa (SCN5A), which can be restored by mitoTEMPO (SCN5A+100 μM [NADH]+5 μM [mitoTEMPO]), which is also compared to mitoTEMPO (5 μM [mitoTEMPO]).
# The SCNSA group is the untreated cells group, and the others were treated with 100 μmol/L NADH in the absence or presence of NAD from 50 to 1000 μmol/L.
# The SCN5A group is the untreated cells group, and the others were treated with 100 μmol/L NADH in the absence or presence of NAD from 50 to 1000 μmol/L.
# mitochondrial ROS [2] = assay: Mitochondrial ROS by MitoSox Red confocal microscopy in PL-treated cells and DOCA myocytes; type: cell-based, mouse
# Protocol: FIG. 6A is a photo showing representative confocal microscopy images of myocytes of 3 groups. Scale bar, 10 μm. Mitochondrial ROS production in response to intracellular NADH was monitored by MitoSox Red with SCNSA cells and myocytes. The control groups were untreated, the pyruvate and lactate (PL) groups were treated with 1 and 10 mmol/L PL buffer, respectively, for 10 minutes, and the NAD-PL groups were incubated with 500 μmol/L NAD^+ for ˜6 hours and then treated with PL buffer for 10 minutes.
# FIG. 6C is a photo showing that mitochondrial ROS levels were increased in DOCA (deoxycorticosterone) myopathic mice and reduced by NAD treatment (500 μmol/L). Representative confocal microscopy images of mitochondrial ROS levels were obtained with treatment of myocytes monitored with MitoTracker Green and MitoSox Red. The white scale bar is 20 μm. […]
# Mitochondrial ROS production in response to intracellular NADH was monitored by MitoSox Red with SCNSA cells and myocytes (FIGS. 6A and 6B). […]
# Mitochondrial ROS levels were increased in DOCA myopathic mice and reduced by NAD^+ treatment (500 μmol/L) (FIG. 6C. Representative confocal microscopy images of mitochondrial ROS levels were obtained with treatment of myocytes monitored with MitoTracker Green and MitoSox Red. The white scale bar is 20 μm. The extremely red cells are dying myocytes that have very high levels of ROS.
# cardiac INa = assay: Peak INa of DOCA mouse cardiomyocytes treated with NAD+; type: cell-based; conditions: 500 μmol/L
# From the text: NAD^+ restored INa decreased by mitoROS in PL-treated cells and in DOCA myocytes.
# mitochondrial ROS [3] = assay: Mitochondrial ROS by flow cytometry in DOCA mice injected with NAD+; type: in vivo, mouse; conditions: 100 mg/kg injected in the neck, P>0.05
# Protocol: Three to four animals and ˜10,000 myocytes from each animal were tested in each group in flow cytometry (FIG. 8A).
# INa = INa in cardiomyopathy of DOCA mice injected with NAD; type: in vivo, mouse; conditions: injection 100 mg/kg
# Protocol: Reduced INa in cardiomyopathy of DOCA was corrected by injection of NAD (100 mg/kg), which had no effect on the sham group (FIG. 8B).
# [4] = tested on: cardiac Na+ channel (Nav1.5); assay: Whole-cell patch clamp recording of Na+ currents (INa) in cardiomyocytes isolated from MI mice treated with antioxidant; type: in vivo, mouse
# Protocol: (§1) The following materials and methods were used to generate the data described herein. MI was induced in 12-week old C57BL/6 mice by coronary artery occlusion. Sham-operated mice were used as controls. Two weeks following surgery, MI mice were either given a mitochondria-targeted antioxidant, mitoTEMPO (0.7 mg/kg/day, intraperitoneally), or left untreated for two weeks. Cardiomyocytes isolated from the scar border of MI mice or from the left ventricular (LV) anterior wall of sham-operated mice were utilized for whole-cell patch clamp recording of Na^+currents (INa) and for measurements of mitochondrial reactive oxygen species (mitoROS) using flow cytometry. Nav1.5 protein expression levels were determined in the LV from MI and sham-operated mice. Echocardiography was performed 2- and 4-weeks following MI. Oxidized nicotinamide adenine dinculeotide used for experiments was purchased from Sigma-Aldrich, catalog number N1636 “β-Nicotinamide adenine dinucleotide hydrate, ≧99%, Synonyms: NAD^+, β-DPN, β-NAD, Coenzyme 1, Cozymase, DPN, Diphosphopyridine nucleotide, NAD, Nadide” and dissolved in water. MitoQ was used at 10 nM.
# MI was induced in 12-week old C57BL/6 mice by coronary artery occlusion. Sham-operated mice were used as controls. […]
# Whole cell INa were measured using the whole-cell patch clamp technique in voltage-clamp mode at room temperature.
# [5] = tested on: mitochondrial reactive oxygen species (mitoROS); assay: mitoROS by flow cytometry (MitoSOX Red) in cardiomyocytes of treated MI mice; type: in vivo, mouse
# Protocol: The following materials and methods were used to generate the data described herein. MI was induced in 12-week old C57BL/6 mice by coronary artery occlusion. Sham-operated mice were used as controls. Two weeks following surgery, MI mice were either given a mitochondria-targeted antioxidant, mitoTEMPO (0.7 mg/kg/day, intraperitoneally), or left untreated for two weeks. Cardiomyocytes isolated from the scar border of MI mice or from the left ventricular (LV) anterior wall of sham-operated mice were utilized for whole-cell patch clamp recording of Na^+currents (INa) and for measurements of mitochondrial reactive oxygen species (mitoROS) using flow cytometry. Nav1.5 protein expression levels were determined in the LV from MI and sham-operated mice. Echocardiography was performed 2- and 4-weeks following MI. […]
# A BD LSR II (BD Biosciences) flow cytometer was used for high-throughput evaluation of mitoROS, mitochondrial volume, and cell survival. […] Separate suspensions were stained with propidium iodide (10 μg/mL) and evaluated at 617 nm to measure for cell integrity. Five thousand gated cells were recorded in each sample. […]
# Connexin 43 = Connexin 43 protein level expression in heart tissue of MI mice; type: in vivo, mouse
# From the text: FIG. 5A is a blot showing Connexin 43 protein level expressions and Glyceraldehyde 3-phosphate dehydrogenase (GAPDH) protein level expressions in heart tissue of Sham, MI mice and MI mice treated with mitoTEMPO (MI tx MT).
# FIG. 5B is a bar graph showing Connexin 43/GAPDH protein expression in Sham, MI mice and MI mice treated with mitoTEMPO (MI tx MT).
# MI was induced in 12-week old C57BL/6 mice by coronary artery occlusion. Sham-operated mice were used as controls. Two weeks after surgery, MI mice were either given a mitochondria-targeted antioxidant, mitoTEMPO (0.7 mg/kg/day, intraperitoneally), or left untreated for two weeks (Rutledge C A et al. J Am Coll Cardiol 2014; 63:928-934).
# [6] = Echocardiography 2 and 4 weeks following MI; type: in vivo, mouse; conditions: MI mice
# Protocol: as §1
# [7] = tested on: sodium channel current (INa); assay: Patch clamp peak INa in adult mouse cardiomyocytes treated with antimycin A; type: cell-based
# Protocol: FIG. 9A is a bar graph showing that MitoQ restored INa that was decreased by antimycin A. The peak INa at −30 mV in adult mouse cardiomyocytes was decreased in antimycin A (5-10 μM) compared with SCNSA alone. Treatment using MitoQ at 10 nM with a 1-2 hour preincubation time restored INa. The SCNSA group is the untreated group. For patch clamp, MitoQ and antimycin A were also applied to the patch clamp bath solution during the entire time of patching, respectively or together. INa was measured at room temperature. Data shown in FIGS. 9A and 9B were obtained from 3 different mice, and 16-28 cells were used on average in each group.
# In addition to MitoTEMP and NAD^+, another mitochondrial-targeted antioxidant, MitoQ, was tested. […] is an antibiotic that induces apoptosis and inhibits the mitochondrial electron transport chain, thereby inducing oxidative stress and generating reactive oxygen species. Because antimycin A is known to generate ROS (for example, increasing superoxide formation), it decreases the sodium channel current (INa). Additionally, antiomycin A causes damage to mitochondrial DNA, lipids, and proteins in cells treated with the antibiotic. […] Mitochondrial ROS production in response to increased antimycin A levels was monitored by MitoSox Red with SCNSA cells and myocytes (FIGS. 9A and 9B). […]
# ROS = ROS density by MitoSox dye in adult mouse cardiomyocytes treated with antimycin A; type: cell-based; conditions: MitoQ 1-2 hours pretreatment, 10 nM
# Protocol: FIG. 9B is a bar graph showing that Mito Q decreased ROS that was generated by antimycin A. ROS density in adult mouse cardiomyocytes was measured using MitoSox dye. Adult mouse cardiomyocytes were isolated, and MitoQ was applied for 1-2 hours pretreatment.
# In addition to MitoTEMP and NAD^+, another mitochondrial-targeted antioxidant, MitoQ, was tested. […] is an antibiotic that induces apoptosis and inhibits the mitochondrial electron transport chain, thereby inducing oxidative stress and generating reactive oxygen species. Because antimycin A is known to generate ROS (for example, increasing superoxide formation), it decreases the sodium channel current (INa). Additionally, antiomycin A causes damage to mitochondrial DNA, lipids, and proteins in cells treated with the antibiotic. MitoSOX Red is a fluorescent mitochondrial probe used to measure ROS production. Mitochondrial ROS production in response to increased antimycin A levels was monitored by MitoSox Red with SCNSA cells and myocytes (FIGS. 9A and 9B).
# Isolated adult mouse cardiomyocytes were pretreated with MitoQ.
# [8] = rodents treated 0.7 mg/kg/day intraperitoneally after ischemic insult
compound,measurement,setting,value
"NC(=O)c1ccc[n+]([C@@H]2O[C@H](COP(=O)([O-])OP(=O)(O)OC[C@H]3O[C@@H](n4cnc5c(N)ncnc54)[C@H](O)[C@@H]3O)[C@@H](O)[C@H]2O)c1 [NAD^+, β-Nicotinamide adenine dinucleotide hydrate]","inhibition of NADH on cardiac INa, effect of extracellular NAD","[1]; 100 μmol/L NADH, NAD from 50 to 1000 μmol/L",reversed the inhibition of NADH on cardiac INa in a dose-dependent manner
same,mitochondrial ROS levels in DOCA myopathic mice myocytes,mitochondrial ROS [2]; 500 μmol/L,reduced
same,MitoROS level increased by PL,"mitochondrial ROS [2]; 500 μmol/L NAD+ for ~6 hours, then PL buffer 10 minutes",Decreased
same,peak INa of DOCA mouse cardiomyocytes,cardiac INa,restored INa to the sham level
same,mitochondrial ROS,mitochondrial ROS [3],1.1±0.1 fold of sham
same,reduced INa in cardiomyopathy of DOCA,INa; DOCA mice,corrected
same,"INa, effect on the sham group",INa; sham mice,no effect
"CC1(C)CC(NC(=O)C[P+](c2ccccc2)(c2ccccc2)c2ccccc2)CC(C)(C)N1[O] [mitoTEMPO, (2-(2,2,6,6-Tetramethylpiperidin-1-oxyl-4-ylamino)-2-oxoethyl)triphenylphosphonium chloride monohydrate]",peak INa density,"[4]; MI mice, 0.7 mg/kg/day intraperitoneally for two weeks, isolated LV cardiomyocytes, sham −24.0±1.8, untreated MI −14.3±1.4",−19.4±0.8 pA/pF
same,"INa activity, effect in words",[4]; [8],statistically significant increase
same,mitoROS level,"[5]; MI mice, 0.7 mg/kg/day intraperitoneally for two weeks, scar border cardiomyocytes, untreated MI 1.5±0.2 fold",1.2±0.2 fold
same,"mitochondrial ROS, effect in words",[5]; [8],statistically significant decrease
same,effect on connexin 43 downregulation in MI,Connexin 43; MI mice,no effect
same,"Connexin 43 level, of sham levels","Connexin 43; treated MI mice, untreated MI 56%, P<0.01 vs sham, ns vs MI",41%
same,"echocardiography parameters, untreated vs treated groups",[6],no significant differences
same,"INa reduced by NADH, effect of antioxidant",[1]; SCN5A + 100 μM NADH + 5 μM mitoTEMPO,restored
"COC1=C(OC)C(=O)C(CCCCCCCCCC[P+](c2ccccc2)(c2ccccc2)c2ccccc2)=C(C)C1=O [MitoQ, 10-(6′-Ubiquinolyl)decylthriphenylphosphonium bromide]","INa decreased by antimycin A, effect of antioxidant","[7]; 10 nM, 1-2 hour preincubation, antimycin A 5-10 μM, peak INa at −30 mV, room temperature",restored INa
same,ROS (MitoSOX density) generated by antimycin A,ROS,elevated MitoSOX density
same,ROS (MitoSOX density) generated by antimycin A,ROS; listed as Mito Q,decreased ROS
antimycin A,"peak INa at −30 mV, effect of antimycin A","[7]; 5-10 μM, compared with SCN5A alone (untreated)",decreased
